This note sets out measurements from paper PMC6712483, “BlsA Is a Low to Moderate Temperature Blue Light Photoreceptor in the Human Pathogen Acinetobacter baumannii” (Frontiers in Microbiology, 2019).

This assay has as its target T1, BlsA (dBlsA, His-BlsA) (Acinetobacter baumannii, UniProt V5VB82).
T1 construct: gene ycgF; short BLUF protein, recombinant His-tag fusion, purified as in Abatedaga et al. 2017; approximately 20 kDa; residues named Tyr7, Gln51, Trp78, Trp92
Kind of assay: cofactor fluorescence emission and anisotropy (steady-state and time-resolved), UV-vis photocycle. The format is binding. As to conditions: dark-adapted state; cofactor bound on purification; temperature series, compared with free FAD.

T1 sequence (V5VB82 entry or part of it): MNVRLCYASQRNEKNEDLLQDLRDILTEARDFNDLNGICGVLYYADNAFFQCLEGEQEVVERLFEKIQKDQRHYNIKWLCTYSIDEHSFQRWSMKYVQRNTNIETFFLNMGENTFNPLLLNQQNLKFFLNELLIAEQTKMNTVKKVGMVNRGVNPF

For the molecule `Cc1cc2nc3c(=O)[nH]c(=O)nc-3n(C[C@H](O)[C@H](O)[C@H](O)COP(=O)(O)OP(=O)(O)OC[C@H]3O[C@@H](n4cnc5c(N)ncnc54)[C@H](O)[C@@H]3O)c2cc1C` [FAD], the “cofactor fluorescence emission and anisotropy (steady-state and time-resolved),” value is reported as “the steady-state anisotropy of the cofactor in dBlsA solutions is strongly decreased”.
